Assays:
Assay type in all cases: biochemical
Met = Met (Homo sapiens, UniProt P08581); test: Human MET kinase assay (HTRF KinEase); set-up: Human MET (residues 956-1390; CarnaBio, 0.1 ng/ well); purchased CarnaBio; conditions: Table 2 Biological Activities, ATP at Km (3.0 μM), read-out: c-Met IC50
Procedure: (§1) Kinase activity and compound inhibition were investigated using the HTRF® KinEase assay (Cisbio Cat #62TKOPEB) per manufacturer's instructions. In short, compounds were delivered in 300 nL volumes at 10 different concentrations in DMSO (3% final) to empty 384-well assay plates (Corning cat #3824). A mixture of enzyme, 1 μM biotynlated peptide substrate, and buffer in 10 μL volume was added. The assay was started upon the addition of ATP (at Km). The 10 μL reaction was incubated at room temperature. The reaction was stopped upon the addition of detection buffer containing streptavidin-XL665 (5 μL) and TK antibody-Eu3+ (5 μL). After a 60 min incubation at room temperature, the fluorescence at 665 nm and 620 nm was read on an Envision microplate reader (Perkin Elmer). Kinase activity normalized to DMSO (100% activity) and reference compound at 1 μM and (0% activity) was calculated using the fluorescence ratio […]. IC50 values were calculated by nonlinear regression analysis using a 4-parameter logistic curve fit in ActivityBase XE (IDBS).
(§2) Human MET (residues 956-1390; CarnaBio, 0.1 ng/ well) was incubated with enzymatic buffer (Cisbio) supplemented with 5 mM MgCl2, 1 mM DTT and 1 mM MnCl2. The mixture was added to the pre-plated compounds. The reaction was initiated upon addition of ATP at Km (3.0 μM). The reaction was incubated at room temperature for 40 min and stopped upon the addition of SA-XL665 and TK-antibody both diluted in EDTA-containing kinase detection buffer (Cisbio). The kinase activity was calculated as stated above and the IC50 values were reported.

Human AXL = target: T1, Human AXL (Homo sapiens, UniProt P30530); test: Human AXL kinase assay (HTRF KinEase); conditions: Table 2 Biological Activities, ATP at Km (1.0 μM)
T1 construct: Human AXL (residues 464-885; CarnaBio, 1 ng/ well); purchased CarnaBio
T1 sequence (P30530 464-885 isoform P30530-2): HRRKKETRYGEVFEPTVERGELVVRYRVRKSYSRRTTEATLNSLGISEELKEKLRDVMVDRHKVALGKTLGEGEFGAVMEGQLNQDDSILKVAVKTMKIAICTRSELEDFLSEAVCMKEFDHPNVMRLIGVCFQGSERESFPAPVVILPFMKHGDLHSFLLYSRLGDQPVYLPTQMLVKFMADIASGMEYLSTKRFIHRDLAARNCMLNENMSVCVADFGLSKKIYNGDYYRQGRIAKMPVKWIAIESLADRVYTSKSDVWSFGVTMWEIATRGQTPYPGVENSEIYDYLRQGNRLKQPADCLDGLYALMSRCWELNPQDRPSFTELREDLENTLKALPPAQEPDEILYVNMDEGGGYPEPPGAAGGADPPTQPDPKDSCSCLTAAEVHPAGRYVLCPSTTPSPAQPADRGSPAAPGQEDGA
Procedure: as §1
Human AXL (residues 464-885; CarnaBio, 1 ng/ well) was incubated with enzymatic buffer (Cisbio) supplemented with 5 mM MgCl2, 1 mM DTT, and Supplemental Enzymatic Buffer (SEB; Cisbio). The mixture was added to the pre-plated compounds. The reaction was initiated upon addition of ATP at Km (1.0 μM). The reaction was incubated at room temperature for 50 min and stopped upon the addition of SA-XL665 and TK-antibody both diluted in EDTA-containing kinase detection buffer (Cisbio). The kinase activity was calculated as stated above and the IC50 values were reported.

Human MER = target: T2, Human MER (Homo sapiens, UniProt Q12866); test: Human MER kinase assay (HTRF KinEase); conditions: Table 2 Biological Activities, ATP at Km (40 μM)
T2 construct: Human MER (residues 528-999; CarnaBio, 1 ng/ well); purchased CarnaBio
T2 sequence (Q12866 528-999): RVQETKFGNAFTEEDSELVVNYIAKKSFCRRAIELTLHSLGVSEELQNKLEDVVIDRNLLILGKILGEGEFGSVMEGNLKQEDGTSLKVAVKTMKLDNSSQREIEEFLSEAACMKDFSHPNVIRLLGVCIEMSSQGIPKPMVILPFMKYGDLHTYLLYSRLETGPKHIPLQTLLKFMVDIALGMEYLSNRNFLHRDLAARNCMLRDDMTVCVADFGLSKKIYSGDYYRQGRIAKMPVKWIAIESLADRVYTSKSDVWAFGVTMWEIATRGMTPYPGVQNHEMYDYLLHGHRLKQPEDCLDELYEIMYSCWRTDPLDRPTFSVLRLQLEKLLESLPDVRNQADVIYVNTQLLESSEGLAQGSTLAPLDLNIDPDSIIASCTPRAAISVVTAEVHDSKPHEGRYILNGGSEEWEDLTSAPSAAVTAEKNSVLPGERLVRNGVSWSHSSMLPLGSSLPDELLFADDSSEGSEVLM
Procedure: as §1
Human MER (residues 528-999; CarnaBio, 1 ng/ well) was incubated with enzymatic buffer (Cisbio) supplemented with 5 mM MgCl2 and 1 mM DTT. The mixture was added to the pre-plated compounds. The reaction was initiated upon addition of ATP at Km (40 μM). The reaction was incubated at room temperature for 60 min and stopped upon the addition of SA-XL665 and TK-antibody both diluted in EDTA-containing kinase detection buffer (Cisbio). The kinase activity was calculated as stated above and the IC50 values were reported.

KDR = KDR (Homo sapiens, UniProt P35968); test: Human KDR kinase assay (HTRF KinEase); set-up: Human KDR (residues 790-1356; CarnaBio, 0.1 ng/ well); purchased CarnaBio; conditions: Table 2 Biological Activities, ATP at Km (4.0 μM)
KDR, sequence (P35968 790-1356): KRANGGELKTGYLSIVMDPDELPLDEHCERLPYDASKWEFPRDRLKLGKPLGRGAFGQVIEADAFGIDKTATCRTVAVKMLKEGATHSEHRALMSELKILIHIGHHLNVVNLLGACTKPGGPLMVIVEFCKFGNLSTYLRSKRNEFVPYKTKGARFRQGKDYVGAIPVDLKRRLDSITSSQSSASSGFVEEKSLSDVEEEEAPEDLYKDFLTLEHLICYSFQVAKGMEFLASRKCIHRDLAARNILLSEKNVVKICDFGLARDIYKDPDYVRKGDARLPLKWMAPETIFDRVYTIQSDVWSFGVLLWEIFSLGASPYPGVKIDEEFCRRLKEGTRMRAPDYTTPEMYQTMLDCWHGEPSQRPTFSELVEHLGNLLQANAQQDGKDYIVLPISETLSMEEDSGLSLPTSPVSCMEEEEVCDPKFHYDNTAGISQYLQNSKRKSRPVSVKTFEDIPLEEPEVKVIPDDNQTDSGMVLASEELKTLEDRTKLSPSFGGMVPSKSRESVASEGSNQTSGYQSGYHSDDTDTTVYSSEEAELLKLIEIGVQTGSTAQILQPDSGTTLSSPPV
Procedure: as §1
as §2, with “KDR” for “MET”, “790-1356;” for “956-1390;”, “MnCl2,” for “DTT”, “DTT.” for “MnCl2.”, “(4.0” for “(3.0”

Met, sequence (P08581 956-1390): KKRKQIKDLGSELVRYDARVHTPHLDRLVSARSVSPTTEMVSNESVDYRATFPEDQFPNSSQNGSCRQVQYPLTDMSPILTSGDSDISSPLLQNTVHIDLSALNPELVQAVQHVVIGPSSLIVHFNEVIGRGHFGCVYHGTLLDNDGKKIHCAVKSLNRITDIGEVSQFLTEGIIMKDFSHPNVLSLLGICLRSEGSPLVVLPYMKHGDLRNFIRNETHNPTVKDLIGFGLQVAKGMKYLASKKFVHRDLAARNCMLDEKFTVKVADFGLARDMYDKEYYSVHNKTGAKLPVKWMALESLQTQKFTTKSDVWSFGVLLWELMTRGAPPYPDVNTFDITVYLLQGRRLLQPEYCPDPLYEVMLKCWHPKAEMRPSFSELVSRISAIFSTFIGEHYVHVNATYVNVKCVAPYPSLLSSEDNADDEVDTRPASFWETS

Structure (SMILES) | IC50 (Met) [nM] | IC50 (Human AXL) [nM] | IC50 (Human MER) [nM] | IC50 (KDR) [nM]
Cc1ccc(C(=O)Nc2ccc(Oc3ccnc4cnc(Cl)cc34)c(F)c2)c(=O)n1-c1ccc(F)cn1 [Compound 54A, N-[4-[(6-Chloro-1,7-naphthyridin-4-yl)oxy]-3-fluorophenyl]-1-(5-fluoropyridin-2-yl)-6-methyl-2-oxopyridine-3-carboxamide] | 100 to 300 |  | ≤ 100 | 300 to 1000
COc1ccc2nccc(Oc3ccc(NC(=O)c4ccc(C)n(-c5ccc(F)cn5)c4=O)cc3F)c2n1 [Compound 47, N-[3-Fluoro-4-[(6-methoxy-1,5-naphthyridin-4-yl)oxy]phenyl]-1-(5-fluoropyridin-2-yl)-6-methyl-2-oxopyridine-3-carboxamide] | 100 to 300 | ≤ 100 | ≤ 100 | 300 to 1000
COc1cc2nccc(Oc3ccc(NC(=O)c4c(C)ccn(-c5ccc(F)cn5)c4=O)cc3F)c2nc1OC [Compound 41, N-[4-[(6,7-Dimethoxy-1,5-naphthyridin-4-yl)oxy]-3-fluorophenyl]-1-(5-fluoropyridin-2-yl)-4-methyl-2-oxopyridine-3-carboxamide] | ≤ 100 | ≤ 100 | ≤ 100 | ≤ 100
Cc1ccc(C(=O)Nc2ccc(Oc3ccnc4cccnc34)c(F)c2)c(=O)n1-c1ccc(F)cn1 [Compound 48, N-[3-Fluoro-4-(1,5-naphthyridin-4-yloxy)phenyl]-1-(5-fluoropyridin-2-yl)-6-methyl-2-oxopyridine-3-carboxamide] | ≤ 100 | ≤ 100 | ≤ 100 | 300 to 1000
COc1cc2nccc(Oc3ccc(NC(=O)c4c(C)n(C)cc(-c5ccc(F)cn5)c4=O)cc3)c2nc1OC [Compound 72, N-[4-[(6,7-Dimethoxy-1,5-naphthyridin-4-yl)oxy]phenyl]-5-(5-fluoropyridin-2-yl)-1,2-dimethyl-4-oxopyridine-3-carboxamide] | 300 to 1000 |  | 100 to 300 | 300 to 1000
COc1ccc2nccc(Oc3ccc(NC(=O)c4ccc(C)n(-c5ccc(F)cn5)c4=O)cc3F)c2c1 [Compound 49, N-[3-Fluoro-4-(6-methoxyquinolin-4-yl)oxyphenyl]-1-(5-fluoropyridin-2-yl)-6-methyl-2-oxopyridine-3-carboxamide] | ≤ 100 |  | ≤ 100 | 100 to 300
COc1cnc2c(Oc3ccc(NC(=O)c4c(C)n(C)cc(-c5ccc(F)cn5)c4=O)cc3F)ccnc2c1 [Compound 73, N-[3-Fluoro-4-[(7-methoxy-1,5-naphthyridin-4-yl)oxy]phenyl]-5-(5-fluoropyridin-2-yl)-1,2-dimethyl-4-oxopyridine-3-carboxamide] | 300 to 1000 |  | 100 to 300 | 300 to 1000
COc1cc2nccc(Oc3ccc(NC(=O)c4c(C)n(C)cc(-c5ccc(F)cn5)c4=O)cc3F)c2nc1OC [Compound 71, N-[4-[(6,7-Dimethoxy-1,5-naphthyridin-4-yl)oxy]-3-fluorophenyl]-5-(5-fluoropyridin-2-yl)-1,2-dimethyl-4-oxopyridine-3-carboxamide] |  |  | ≤ 100 | 300 to 1000
COc1cc2nccc(Oc3ccc(NC(=O)c4cc(C#N)c(C)n(-c5ccc(F)cn5)c4=O)cc3F)c2nc1OC [Compound 56, 5-Cyano-N-[4-[(6,7-dimethoxy-1,5-naphthyridin-4-yl)oxy]-3-fluorophenyl]-1-(5-fluoropyridin-2-yl)-6-methyl-2-oxopyridine-3-carboxamide] | ≤ 100 |  | ≤ 100 | 300 to 1000

Further lines, results first:

IC50 (Met) [nM] | IC50 (Human AXL) [nM] | IC50 (Human MER) [nM] | IC50 (KDR) [nM] | Structure (SMILES)
≤ 100 | ≤ 100 |  |  | COc1cc2nccc(Oc3ccc(NC(=O)c4ccc(C)n(-c5ccncc5F)c4=O)cc3F)c2nc1OC [Compound 220, N-[4-[(6,7-Dimethoxy-1,5-naphthyridin-4-yl)oxy]-3-fluorophenyl]-1-(3-fluoropyridin-4-yl)-6-methyl-2-oxopyridine-3-carboxamide]
≤ 100 | ≤ 100 |  |  | COCc1nc(C)c(-c2ccc(F)cn2)c(O)c1C(=O)Nc1ccc(Oc2ccnc3cc(OC)c(OC)nc23)c(F)c1 [Compound 214, N-[4-[(6,7-Dimethoxy-1,5-naphthyridin-4-yl)oxy]-3-fluorophenyl]-5-(5-fluoropyridin-2-yl)-4-hydroxy-2-(methoxymethyl)-6-methylpyridine-3-carboxamid]
≤ 100 | ≤ 100 |  |  | COc1cnc2c(Oc3ccc(NC(=O)c4c(C)nc(C)c(-c5ccc(F)cn5)c4O)cc3F)ccnc2c1 [Compound 217, N-[3-Fluoro-4-[(7-methoxy-1,5-naphthyridin-4-yl)oxy]phenyl]-5-(5-fluoropyridin-2-yl)-4-hydroxy-2,6-dimethylpyridine-3-carboxamide]
≤ 100 | ≤ 100 |  |  | COc1cc2nccc(Oc3ccc(NC(=O)c4ccc(C)n(-c5ccncc5)c4=O)cc3F)c2nc1OC [Compound 221, N-[4-[(6,7-Dimethoxy-1,5-naphthyridin-4-yl)oxy]-3-fluorophenyl]-6-methyl-2-oxo-1-pyridin-4-ylpyridine-3-carboxamid]
≤ 100 | ≤ 100 |  |  | COc1cc2nccc(Oc3ccc(NC(=O)c4c(C)nc(C)c(-c5ccc(F)cn5)c4O)cc3F)c2nc1OC [Compound 218, N-[4-[(6,7-Dimethoxy-1,5-naphthyridin-4-yl)oxy]-3-fluorophenyl]-5-(5-fluoropyridin-2-yl)-4-hydroxy-2,6-dimethylpyridine-3-carboxamide]
≤ 100 | ≤ 100 |  |  | COc1cc2nccc(Oc3ccc(NC(=O)c4c(C)nc(C)c(-c5ccc(F)cn5)c4O)cc3)c2nc1OC [Compound 216, N-[4-[(6,7-Dimethoxy-1,5-naphthyridin-4-yl)oxy]phenyl]-5-(5-fluoropyridin-2-yl)-4-hydroxy-2,6-dimethylpyridine-3-carboxamide]
